Data: the NIST ThermoML archive (doi:10.1016/j.jct.2019.02.025)

Assays:
[1] = for mass density / kinematic viscosity: 101.33 kPa, Liquid; for mass density: Vibrating tube method; for surface tension liquid-gas / kinematic viscosity: Surface laser light scattering (SLLS)
[2] = refractive index (Na D-line) (dimensionless); conditions: 101.33 kPa, Liquid, Standard Abbe refractometry

CCCCCCCCCC(=O)OC [methyl decanoate]
Conditions	kinematic viscosity [m2/s]	mass density [kg/m3]	refractive index	surface tension liquid-gas [mN/m]
[1], 293.15 K	–	872.34	–	–
[1], 298.14 K	2.09e-06	–	–	24.73
[1], 303.15 K	–	864.01	–	–
[1], 313.15 K	–	855.73	–	–
[1], 323.15 K	–	847.47	–	–
[1], 323.16 K	1.48e-06	–	–	23.28
[1], 333.15 K	–	839.2	–	–
[1], 343.15 K	–	830.94	–	–
[1], 348.16 K	1.13e-06	–	–	21.96
[1], 353.15 K	–	822.61	–	–
[1], 363.15 K	–	814.38	–	–
[1], 373.15 K	–	806.06	–	–
[1], 373.17 K	8.74e-07	–	–	20.49
[1], 383.15 K	–	797.7	–	–
[1], 393.15 K	–	789.29	–	–
[1], 398.08 K	6.87e-07	–	–	18.81
[1], 403.15 K	–	780.82	–	–
[1], 413.15 K	–	771.74	–	–
[1], 422.99 K	5.61e-07	–	–	16.83
[1], 423.15 K	–	763.71	–	–
[1], 433.15 K	–	755	–	–
[1], 443.15 K	–	746.3	–	–
[1], 447.95 K	4.52e-07	–	–	14.87
[1], 453.15 K	–	737.39	–	–
[2], 278.15 K	–	–	1.43209	–
[2], 283.15 K	–	–	1.42995	–
[2], 288.15 K	–	–	1.42783	–
[2], 293.15 K	–	–	1.42571	–
[2], 298.15 K	–	–	1.42359	–
[2], 303.15 K	–	–	1.42148	–
[2], 308.15 K	–	–	1.41938	–
[2], 313.15 K	–	–	1.41726	–
[2], 318.15 K	–	–	1.4151	–
[2], 323.15 K	–	–	1.41295	–
[2], 328.15 K	–	–	1.41083	–
[2], 333.15 K	–	–	1.40871	–
[2], 338.15 K	–	–	1.40659	–
[2], 343.15 K	–	–	1.40448	–
[2], 348.15 K	–	–	1.40237	–
[2], 353.15 K	–	–	1.40028	–
[2], 358.15 K	–	–	1.39819	–

CCCCCCCCCCCC(=O)OC [methyl dodecanoate]
Conditions	kinematic viscosity [m2/s]	mass density [kg/m3]	refractive index	surface tension liquid-gas [mN/m]
[1], 293.15 K	–	869.26	–	–
[1], 298.14 K	2.81e-06	–	–	23.49
[1], 303.15 K	–	861.25	–	–
[1], 313.15 K	–	853.32	–	–
[1], 323.15 K	–	845.42	–	–
[1], 323.16 K	1.9e-06	–	–	22.02
[1], 333.15 K	–	837.53	–	–
[1], 343.15 K	–	829.63	–	–
[1], 348.15 K	1.44e-06	–	–	21.12
[1], 353.15 K	–	820.84	–	–
[1], 363.15 K	–	813.94	–	–
[1], 373.15 K	–	806.11	–	–
[1], 373.17 K	1.14e-06	–	–	19.82
[1], 383.15 K	–	798.22	–	–
[1], 393.15 K	–	790.34	–	–
[1], 398.27 K	9.1e-07	–	–	18.66
[1], 403.15 K	–	782.4	–	–
[1], 413.15 K	–	774.39	–	–
[1], 423.15 K	–	766.34	–	–
[1], 423.25 K	7.36e-07	–	–	17.48
[1], 433.15 K	–	758.26	–	–
[1], 443.15 K	–	750.06	–	–
[1], 448.25 K	5.99e-07	–	–	15.99
[1], 453.15 K	–	741.94	–	–
[2], 278.15 K	–	–	1.43836	–
[2], 283.15 K	–	–	1.43629	–
[2], 288.15 K	–	–	1.43422	–
[2], 293.15 K	–	–	1.43216	–
[2], 298.15 K	–	–	1.43009	–
[2], 303.15 K	–	–	1.42802	–
[2], 308.15 K	–	–	1.42594	–
[2], 313.15 K	–	–	1.42383	–
[2], 318.15 K	–	–	1.42171	–
[2], 323.15 K	–	–	1.41959	–
[2], 328.15 K	–	–	1.4175	–
[2], 333.15 K	–	–	1.41542	–
[2], 338.15 K	–	–	1.41334	–
[2], 343.15 K	–	–	1.41127	–
[2], 348.15 K	–	–	1.40922	–
[2], 353.15 K	–	–	1.40717	–
[2], 358.15 K	–	–	1.40513	–

CCCCCCC(=O)OC [methyl heptanoate]
Conditions	kinematic viscosity [m2/s]	mass density [kg/m3]	refractive index	surface tension liquid-gas [mN/m]
[1], 293.15 K	–	879.29	–	–
[1], 298.13 K	1.22e-06	–	–	24.75
[1], 303.15 K	–	870.75	–	–
[1], 313.15 K	–	861.6	–	–
[1], 323.15 K	–	852.39	–	–
[1], 323.17 K	8.92e-07	–	–	23
[1], 333.15 K	–	843.15	–	–
[1], 343.15 K	–	833.87	–	–
[1], 348.19 K	6.79e-07	–	–	21.02
[1], 353.15 K	–	824.55	–	–
[1], 363.15 K	–	814.17	–	–
[1], 373.15 K	–	805.69	–	–
[1], 373.26 K	5.32e-07	–	–	18.72
[1], 383.15 K	–	796.11	–	–
[1], 393.15 K	–	786.44	–	–
[1], 398.29 K	4.34e-07	–	–	16.66
[1], 403.15 K	–	776.63	–	–
[1], 413.15 K	–	766.7	–	–
[1], 423.15 K	–	756.62	–	–
[1], 423.26 K	3.66e-07	–	–	14.43
[1], 433.15 K	–	746.31	–	–
[1], 448.29 K	3.14e-07	–	–	12.33
[2], 278.15 K	–	–	1.41865	–
[2], 283.15 K	–	–	1.41643	–
[2], 288.15 K	–	–	1.41421	–
[2], 293.15 K	–	–	1.41199	–
[2], 298.15 K	–	–	1.40976	–
[2], 303.15 K	–	–	1.40753	–
[2], 308.15 K	–	–	1.4053	–
[2], 313.15 K	–	–	1.40301	–
[2], 318.15 K	–	–	1.4007	–
[2], 323.15 K	–	–	1.39841	–
[2], 328.15 K	–	–	1.39614	–
[2], 333.15 K	–	–	1.39389	–
[2], 338.15 K	–	–	1.39167	–
[2], 343.15 K	–	–	1.38946	–
[2], 348.15 K	–	–	1.38724	–
[2], 353.15 K	–	–	1.38501	–
[2], 358.15 K	–	–	1.38276	–
